Tests used:
Carcinogenesis = conditions: in vivo; cited from earlier work
breast cancer = conditions: mice; cited from earlier work
mammary adenocarcinomas = experiment: Development of mammary tumors in laboratory animals fed dietary CLA; type: in vivo; conditions: for reduction in the total number of mammary adenocarcinomas: laboratory animals
Source text: The synthetically prepared conjugated linoleic acid (CLA) is an effective agent in inhibiting the development of mammary tumors. Laboratory animals fed a diet comprising 0.5%, 1%, or 1.5% by weight conjugated linoleic acid (CLA) have been seen to have a reduction in the total number of mammary adenocarcinomas, in the range of about 30%, 55%, and 60%, respectively. […] Final tumor incidence and cumulative tumor weights are diminished with the administration of a therapeutically effective amount of the purified conjugated linoleic acid (CLA).

[1] = therapeutically effective amount of purified CLA

Q: With `CCCCC/C=C\C/C=C\CCCCCCCC(=O)O` [Linoleic acid, 9-cis, 12-cis octadecadienoic acid] as the compound, how does the “effect on Carcinogenesis” value (Carcinogenesis) read?
A: enhance Carcinogenesis

Q: With conjugated linoleic acid [CLA] as the compound, how does the “effect on breast cancer” value (breast cancer) read?
A: preventive effects

Q: What about the “inhibition of mammary cancer and protection against subsequent tumor occurrence” value (mammary adenocarcinomas; dietary CLA between 0.1 and 0.5% by weight) of the same compound?
A: dose-dependent inhibition

Q: What about the “reduction in the total number of mammary adenocarcinomas” value (from here on “reduction in the total number”) (mammary adenocarcinomas; diet comprising 0.5% by weight CLA) of the same compound?
A: about 30%

Q: What about the “reduction in the total number” value (mammary adenocarcinomas; diet comprising 1% by weight CLA) of the same compound?
A: ~55%

Q: And the “reduction in the total number” value (mammary adenocarcinomas; diet comprising 1.5% by weight CLA)?
A: ~60%

Q: And the cumulative tumor weights (mammary adenocarcinomas; [1])?
A: diminished

Q: What about the final tumor incidence (mammary adenocarcinomas; [1]) of the same compound?
A: diminished

From patent US6602908B2, “Suppression of carcinoma using high purity conjugated fatty acid” (priority 1999, dated 2003)
